Data taken from publication PMC3438169 (PLoS ONE, 2012).
*1 amine or outer side, *2 acyl side, *3 side chain or, on linkers, in order; H or OH if unused. Where a SMILES comes first, the peptide text is derived from it. [ ]: non-standard residue; d: D form. dAla(ψthiazole) = C[C@@H](N[*:1])c1nc(C(=O)[*:2])cs1; Trp(4-OMe) = COc1cccc2[nH]cc(C[C@H](N)C(=O)O)c12; dAbu = CC[C@@H](N)C(=O)O; Dha = C=C(N)C(=O)O; Sar = CNCC(=O)O

Tests used:
P. aeruginosa [1] = assay: Resistant mutant selection, P. aeruginosa; assay type: cell-based; conditions: P. aeruginosa K767; solid medium containing 128 µg/ml argyrin B
Protocol: Resistance frequencies were calculated as the number of CFU (mutants) on drug containing plates divided by the number of CFU plated. Whole genome sequencing was done as described previously. The fusA1 gene from P. aeruginosa was generated for sequencing in two parts, using primer pairs PAEFF1/PAEFR1: […]/[…] and EFF2/EFR1: […]/[…]. The fusA1 gene from B. multivorans was generated as a single band using BCEFGF1/BCEFGR1: […]/[…]. Nucleotide sequencing of the products was done by Agencourt (Beverly MA).

[2] = test system: efflux-defective yeast strain (BYΔ8); assay: Yeast colony formation on ethanol/glycerol medium; assay type: cell-based, S. cerevisiae; conditions: 0.1 µM argyrin B
Protocol: (§1) Strain BYΔ8 was incubated in 2.5% ethylmethanesulfonate until only 50% of the cells formed colonies. […] Amplifying the mutated MEF1 gene and transforming it into non-mutagenized BYΔ8 cells validated identified mutations in MEF1.

[3] = test system: Cox4-GFP labeled mitochondria; assay: Microscopy of mitochondrial morphology (Cox4-GFP); assay type: cell-based, S. cerevisiae; conditions: 3× IC30 (10 µM on YPEG), 30 minutes, ethanol/glycerol
Protocol: BY4741 cells containing a genomic COX4-GFP fusion where grown to mid-log phase in glucose and ethanol/glycerol media and incubated with the corresponding concentrations of compound for 30 minutes. Aliquots where spotted on microscopy slides and directly imaged on a Zeiss Axiovert 200Mot microscope equipped with a AxioCam MRm digital camera using the Plan-Neofluar 100×, 1.3 oil PH3 objective (Carl Zeiss, Feldbach, Switzerland). A z-stack consisting of 3 images spaced by […] in the filterset 38 (eGFP) channel and a phase-contrast image where acquired. False colors where applied to the GFP images (green) and phase contrast (blue) and the images merged into one plane and scaled to 8-bit. Representative, individual cells where selected and assembled into a panel using Adobe Photoshop (Adobe Systems Inc.).

P. aeruginosa [4] = assay: Broth microdilution susceptibility to argyrin B, P. aeruginosa strains; assay type: cell-based; conditions: for Susceptibility to argyrin B: broth microdilution
[5] = test system: BYΔ8 strain with MEF1 mutations; assay: Yeast susceptibility determination, MEF1 mutants in BYΔ8 background; assay type: cell-based, S. cerevisiae; conditions: Figure 2D: all argyrin B concentrations in the range tested
Protocol: Yeast strains used in this study are BY4741 [32] and strain BYΔ8, derived from BY4741 but deleted for eight genes involved in drug resistance (efflux pumps: snq2, pdr5, yor1; transcription factors: pdr1, pdr2, pdr3, yap1, yrm1). […] Starting OD600 was 0.1, total volume per well 120 µl. Plates were incubated at 30°C with 770 RPM orbital shaking.
as §1

[6] = test system: succinate dehydrogenase flavoprotein subunit (SDHA); assay: Immunoblot of nuclear-encoded SDHA in HCT116 and RKO cells; assay type: cell-based, human; conditions: 4 days
Protocol: (§2) Whole cell lysates were prepared using RIPA buffer (Cell Signaling Technology) supplemented with EDTA-free protease inhibitor cocktail (Roche Applied Science), cleared by centrifugation at 16,000× g for 10 min, normalized based on protein concentration (Bio-Rad protein assay), boiled in NuPAGE LDS sample buffer (Invitrogen) supplemented with 2% ß-mercaptoethanol, and separated on NuPAGE 4–12% Bis-Tris gels using MOPS running buffer (Invitrogen). Proteins were transferred to nitrocellulose membranes and probed with the following primary antibodies: rabbit polyclonal antibody against mEF-G1 (Sigma, HPA034765), rabbit monoclonal antibody against GAPDH (Cell Signaling Technology, 14C10), mouse monoclonal antibodies against COX2 (Invitrogen, A6404) or SDHA (MitoSciences, MS204). Immobilized primary antibodies were visualized using HRP-conjugated anti-rabbit or anti-mouse IgG (Millipore, AP307P and AP308P) and enhanced chemiluminescence (Pierce).

RKO = assay: Cell viability (CellTiter-Glo), RKO with siRNA or mEF-G1 variants; assay type: cell-based, human
Protocol: HCT116 (ATCC, CCL-247) and RKO (ATCC, CRL-2577) cell lines were maintained in a humidified incubator at 37°C and 5% CO2 in RPMI1640 supplemented with 10% FBS. Cell viability was determined using the CellTiter-Glo luminescent cell viability assay (Promega). […] Subsequently, 40 µl of CellTiter-Glo reagent was added to each well and luminescence recorded on an Envision plate reader (Perkin Elmer). Each treatment condition was tested in triplicate and compared to an equivalent volume of DMSO as control.
Non-targeting (NT) or GFM1 siRNA pools were obtained from Dharmacon (ON-TARGETplus SMART pool D-001810 and L-013685). HCT116 and RKO cells were reverse transfected in 6-well plates using RNAiMax (Invitrogen) and 25 nM siRNA. After 2 days, cells were harvested by trypsinization and re-plated into 6-well plates for western blot analysis or into 384-well plates for compound treatments and cell viability determination using CellTiter-Glo as described above.
The human GFM1 cDNA (encoding mEF-G1, Table 2) was mutagenized in pENTR221 (Invitrogen) using QuikChangeII XL site-directed mutagenesis (Stratagene). The following point mutations were introduced: C1355T (encoding S452L), C1481T (encoding S494F) and T2078A (encoding L693Q). The GFM1 cDNAs were then subcloned into the mammalian expression vector pLenti4/TO/V5 using LR clonase II (Invitrogen) and sequence-verified. The pLenti4 constructs were then co-transfected with a lentiviral plasmid mix (encoding LP1, LP2 and VSV-G) into 293T cells, and viral particles were harvested after 72 h and used to infect HCT116 and RKO cells. Stable cell lines were generated by selection with 400 µg/ml Zeocin and plated into 6-well plates for western blot analysis or into 384-well plates for compound treatments and cell viability determination using CellTiter-Glo as described above.

[7] = test system: cytochrome c oxidase subunit 2 (COX2); assay: Immunoblot of mitochondrial-encoded COX2 in HCT116 and RKO cells; assay type: cell-based, human; conditions: 4 days
Protocol: as §2

## C=C1NC(=O)CN(C)C(=O)CNC(=O)[C@H](Cc2c[nH]c3cccc(OC)c23)NC(=O)[C@H](Cc2c[nH]c3ccccc23)NC(=O)c2csc(n2)[C@@H](C)NC(=O)[C@@H](CC)NC1=O [argyrin B] (cyclo([dAbu][dAla(ψthiazole)]W[Trp(4-OMe)]G[Sar][Dha]))
P. aeruginosa [1]
  frequency of mutants with decreased susceptibility: circa 5×10^−8
[2]
  Colony formation (in words): abolished colony formation
[3]
  Mitochondrial morphology (in words): mitochondrial morphology defects (fragmentation)
P. aeruginosa [4]; P. aeruginosa ATCC 12055 (parent of ATCC 35151)
  Susceptibility to argyrin B: 8 µg/mL
P. aeruginosa [4]; P. aeruginosa ATCC 35151 (Z61), hypersensitive
  Susceptibility to argyrin B: 0.125 to 0.25 µg/mL
P. aeruginosa [4]; P. aeruginosa CDA0055 (Z61, FusA1 S417L)
  Susceptibility to argyrin B: 64 µg/mL
P. aeruginosa [4]; P. aeruginosa CDA0056 (Z61, FusA1 S459F)
  Susceptibility to argyrin B: 8 µg/mL
P. aeruginosa [4]; P. aeruginosa CDA0061 (Z61, FusA L663Q)
  Susceptibility to argyrin B: >128 µg/mL
P. aeruginosa [4]; P. aeruginosa CDR0052 (K767, FusA1 T671A)
  Susceptibility to argyrin B: >128 µg/mL
P. aeruginosa [4]; P. aeruginosa CDR0054 (K767, FusA1 S459F)
  Susceptibility to argyrin B: >128 µg/mL
P. aeruginosa [4]; P. aeruginosa CDR0055 (K767, FusA1 S417L)
  Susceptibility to argyrin B: >128 µg/mL
P. aeruginosa [4]; P. aeruginosa CDR0056 (K767, FusA1 Y683C)
  Susceptibility to argyrin B: >128 µg/mL
P. aeruginosa [4]; P. aeruginosa CDR0057 (K767, FusA1 P486S)
  Susceptibility to argyrin B: >128 µg/mL
P. aeruginosa [4]; P. aeruginosa CDR0058 (K767, FusA1 P414S)
  Susceptibility to argyrin B: >128 µg/mL
P. aeruginosa [4]; P. aeruginosa K767 (PAO1, prototroph)
  Susceptibility to argyrin B: 8 µg/mL
P. aeruginosa [4]; P. aeruginosa Z61 mutants with S417L and S459F substitutions
  Sensitivity of mutants to argyrin B (in words): still partially sensitive
[5]
  Inhibition of the wild-type (MEF1wt) strain (in words): full inhibiton of the wild-type strain
[6]; HCT116, 1 µM argyrin B
  SDHA protein level (in words): did not affect the levels
[6]; RKO, 1 µM argyrin B
  SDHA protein level (in words): did not affect the levels
RKO; GFM1 siRNA, 7 days, CellTiter Glo
  Lowering of IC50 by knock down of mEF-G1: ~3.3 fold
RKO; hypoxia, data not shown
  Sensitivity under hypoxic culture conditions (in words): became less sensitive
RKO; mEF-G1 L693Q, 7 days
  Decrease of susceptibility on expression of mEF-G1 L693Q: 7 fold
RKO; mEF-G1 S452L and S494F, 7 days
  Sensitivity change on expression of mEF-G1 S452L and S494F (in words): only marginal effects
RKO; mEF-G1 WT stable overexpression, 7 days
  Sensitivity change on overexpression of mEF-G1 WT (in words): did not alter the argyrin B-sensitivity
[7]; HCT116, 1 µM argyrin B
  COX2 protein level (in words): depleted
[7]; RKO, 1 µM argyrin B
  COX2 protein level (in words): depleted
